Results on four compounds are retold here after paper PMC7827406, “Structure–Activity Relationship (SAR) Study of Spautin-1 to Entail the Discovery of Novel NEK4 Inhibitors” (International Journal of Molecular Sciences, 2021).

Read-outs that look alike come from different tables or passages of the source.

What all share (test): biochemical
What all share (parameters): Eurofins KinaseProfiler full panel at Km ATP, residual kinase activity (%) relative to DMSO

The target of one test is RIPK2(h) (Homo sapiens, UniProt O43353). The method in brief: (§1)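 Two 10 µM single-concentration screens were run: a competition-binding screen, in which DNA-tagged kinase bound to immobilized ligands was quantified by qPCR, and a radiometric activity panel at Km ATP. Each is expressed as residual kinase activity (%).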
Chain of RIPK2(h) (O43353 whole entry): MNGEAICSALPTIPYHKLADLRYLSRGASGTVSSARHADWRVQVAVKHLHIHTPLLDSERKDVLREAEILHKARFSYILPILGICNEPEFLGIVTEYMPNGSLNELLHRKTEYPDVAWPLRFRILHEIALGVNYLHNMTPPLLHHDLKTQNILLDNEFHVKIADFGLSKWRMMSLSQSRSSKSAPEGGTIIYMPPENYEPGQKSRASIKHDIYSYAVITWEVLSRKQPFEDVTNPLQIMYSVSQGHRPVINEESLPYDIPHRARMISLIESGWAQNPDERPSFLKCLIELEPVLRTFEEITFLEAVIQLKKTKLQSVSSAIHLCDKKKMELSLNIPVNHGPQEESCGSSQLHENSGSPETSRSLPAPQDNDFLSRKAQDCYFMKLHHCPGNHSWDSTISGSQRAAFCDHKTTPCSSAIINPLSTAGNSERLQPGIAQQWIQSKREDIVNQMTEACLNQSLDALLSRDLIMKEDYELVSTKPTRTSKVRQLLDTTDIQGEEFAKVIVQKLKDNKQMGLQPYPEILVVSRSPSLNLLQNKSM
The target in another test is TGFBR2(h) (Homo sapiens, UniProt P37173). The essentials:
as §1

For test [1], the target named is T1, PI3 Kinase (p110a(E542K)/p85a)(m) (Mus musculus, UniProt P42337, E542K).
T1 construct: gene Pik3ca
The method in brief:
as §1

The target of the next test is T2, GRK1(h) (Homo sapiens, UniProt Q15835).
T2 sequence (Q15835 1-563): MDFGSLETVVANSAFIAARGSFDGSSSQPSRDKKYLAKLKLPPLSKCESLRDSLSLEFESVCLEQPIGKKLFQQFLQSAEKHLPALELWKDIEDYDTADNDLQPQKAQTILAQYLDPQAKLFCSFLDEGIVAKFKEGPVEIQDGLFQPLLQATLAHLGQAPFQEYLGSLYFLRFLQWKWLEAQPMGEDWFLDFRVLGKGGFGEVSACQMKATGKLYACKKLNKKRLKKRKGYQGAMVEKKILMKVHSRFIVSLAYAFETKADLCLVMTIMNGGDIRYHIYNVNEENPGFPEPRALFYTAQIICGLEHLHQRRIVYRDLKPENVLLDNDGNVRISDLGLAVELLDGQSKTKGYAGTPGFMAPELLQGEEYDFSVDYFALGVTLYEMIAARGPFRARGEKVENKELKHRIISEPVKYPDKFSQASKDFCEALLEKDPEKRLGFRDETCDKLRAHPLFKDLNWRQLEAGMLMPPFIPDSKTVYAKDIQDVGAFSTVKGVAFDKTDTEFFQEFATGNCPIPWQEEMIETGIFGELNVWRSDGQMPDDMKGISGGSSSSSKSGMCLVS
The essentials: as §1

The target of another test is HIPK2(h) (Homo sapiens, UniProt Q9H2X6). The essentials: as §1
The target of the next test is T3, CaMKIIα(h) (Homo sapiens, UniProt Q9UQM7).
T3 construct: gene CAMK2A
T3 sequence (Q9UQM7 whole entry): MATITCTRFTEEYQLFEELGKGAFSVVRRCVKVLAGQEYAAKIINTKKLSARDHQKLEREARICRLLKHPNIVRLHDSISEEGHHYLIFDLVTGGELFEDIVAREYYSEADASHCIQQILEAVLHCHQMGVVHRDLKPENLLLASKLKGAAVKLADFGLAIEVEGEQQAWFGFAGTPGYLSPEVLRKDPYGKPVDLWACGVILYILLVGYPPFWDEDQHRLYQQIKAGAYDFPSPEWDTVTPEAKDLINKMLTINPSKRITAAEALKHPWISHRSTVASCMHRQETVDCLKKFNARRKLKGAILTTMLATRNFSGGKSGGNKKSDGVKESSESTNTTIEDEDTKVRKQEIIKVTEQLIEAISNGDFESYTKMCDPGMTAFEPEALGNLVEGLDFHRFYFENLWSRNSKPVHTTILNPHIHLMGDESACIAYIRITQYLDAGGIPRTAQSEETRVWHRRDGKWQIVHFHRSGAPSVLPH
The essentials: as §1

In another test the target is T4, PRP4(h) (Homo sapiens, UniProt Q13523).
T4 construct: gene PRP4K
T4 sequence (Q13523 whole entry): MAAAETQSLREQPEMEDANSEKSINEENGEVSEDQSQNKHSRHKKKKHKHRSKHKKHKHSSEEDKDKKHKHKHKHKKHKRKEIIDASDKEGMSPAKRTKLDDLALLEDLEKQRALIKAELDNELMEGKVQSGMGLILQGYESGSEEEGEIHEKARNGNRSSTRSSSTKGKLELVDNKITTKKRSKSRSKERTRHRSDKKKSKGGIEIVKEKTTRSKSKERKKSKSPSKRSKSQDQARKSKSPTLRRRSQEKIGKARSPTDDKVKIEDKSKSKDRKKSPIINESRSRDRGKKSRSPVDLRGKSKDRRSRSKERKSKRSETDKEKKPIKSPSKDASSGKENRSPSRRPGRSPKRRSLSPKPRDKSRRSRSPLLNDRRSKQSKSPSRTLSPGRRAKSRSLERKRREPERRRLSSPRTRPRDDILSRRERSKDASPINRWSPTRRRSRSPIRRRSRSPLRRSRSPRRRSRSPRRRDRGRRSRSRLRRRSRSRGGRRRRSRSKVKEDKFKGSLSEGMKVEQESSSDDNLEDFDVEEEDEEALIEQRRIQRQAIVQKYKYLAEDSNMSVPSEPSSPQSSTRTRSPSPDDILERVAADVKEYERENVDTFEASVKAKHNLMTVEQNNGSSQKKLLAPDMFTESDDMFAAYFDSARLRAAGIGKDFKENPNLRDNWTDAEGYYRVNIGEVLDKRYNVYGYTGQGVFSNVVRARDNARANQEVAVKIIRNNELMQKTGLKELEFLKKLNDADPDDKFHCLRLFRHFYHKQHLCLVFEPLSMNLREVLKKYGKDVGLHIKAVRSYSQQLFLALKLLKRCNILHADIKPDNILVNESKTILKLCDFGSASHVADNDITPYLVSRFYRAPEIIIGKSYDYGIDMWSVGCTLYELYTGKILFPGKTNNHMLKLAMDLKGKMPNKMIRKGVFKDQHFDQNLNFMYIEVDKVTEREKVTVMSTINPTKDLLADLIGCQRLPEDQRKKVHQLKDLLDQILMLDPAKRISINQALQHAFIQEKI
The method in brief: as §1

The next test has as its target CSK(h) (Homo sapiens, UniProt P41240). The essentials: as §1
Another test concerns the target T5, Yes(h) (Homo sapiens, UniProt P07947).
T5 construct: gene YES1
The essentials: as §1

For a further test, the target named is T6, Rsk2(h) (Homo sapiens, UniProt P51812).
T6 construct: gene RPS6KA3
T6 sequence (P51812 whole entry): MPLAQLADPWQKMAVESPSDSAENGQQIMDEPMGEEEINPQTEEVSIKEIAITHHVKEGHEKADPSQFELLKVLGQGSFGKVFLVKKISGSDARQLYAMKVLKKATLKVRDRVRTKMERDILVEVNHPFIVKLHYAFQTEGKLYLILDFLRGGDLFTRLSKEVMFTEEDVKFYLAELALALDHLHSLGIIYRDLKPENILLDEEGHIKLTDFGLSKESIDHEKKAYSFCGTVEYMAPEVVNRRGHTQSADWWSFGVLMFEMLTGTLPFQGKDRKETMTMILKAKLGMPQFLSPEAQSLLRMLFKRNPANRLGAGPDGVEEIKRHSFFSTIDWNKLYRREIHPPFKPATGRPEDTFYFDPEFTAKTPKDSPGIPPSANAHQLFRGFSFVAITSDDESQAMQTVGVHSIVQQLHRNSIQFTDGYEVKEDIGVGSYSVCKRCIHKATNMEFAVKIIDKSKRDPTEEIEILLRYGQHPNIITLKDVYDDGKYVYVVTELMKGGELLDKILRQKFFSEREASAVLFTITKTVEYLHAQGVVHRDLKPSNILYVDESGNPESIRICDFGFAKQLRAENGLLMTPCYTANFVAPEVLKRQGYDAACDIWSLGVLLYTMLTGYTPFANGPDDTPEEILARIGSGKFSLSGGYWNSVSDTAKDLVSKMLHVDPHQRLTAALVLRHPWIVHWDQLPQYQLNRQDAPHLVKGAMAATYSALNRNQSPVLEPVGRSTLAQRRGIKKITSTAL
The method in brief:
as §1

Another test has as its target IRAK1(h) (Homo sapiens, UniProt P51617). The method in brief: as §1
The next test deals with T7, Bmx(h) (Homo sapiens, UniProt P51813).
T7 sequence (P51813 1-675): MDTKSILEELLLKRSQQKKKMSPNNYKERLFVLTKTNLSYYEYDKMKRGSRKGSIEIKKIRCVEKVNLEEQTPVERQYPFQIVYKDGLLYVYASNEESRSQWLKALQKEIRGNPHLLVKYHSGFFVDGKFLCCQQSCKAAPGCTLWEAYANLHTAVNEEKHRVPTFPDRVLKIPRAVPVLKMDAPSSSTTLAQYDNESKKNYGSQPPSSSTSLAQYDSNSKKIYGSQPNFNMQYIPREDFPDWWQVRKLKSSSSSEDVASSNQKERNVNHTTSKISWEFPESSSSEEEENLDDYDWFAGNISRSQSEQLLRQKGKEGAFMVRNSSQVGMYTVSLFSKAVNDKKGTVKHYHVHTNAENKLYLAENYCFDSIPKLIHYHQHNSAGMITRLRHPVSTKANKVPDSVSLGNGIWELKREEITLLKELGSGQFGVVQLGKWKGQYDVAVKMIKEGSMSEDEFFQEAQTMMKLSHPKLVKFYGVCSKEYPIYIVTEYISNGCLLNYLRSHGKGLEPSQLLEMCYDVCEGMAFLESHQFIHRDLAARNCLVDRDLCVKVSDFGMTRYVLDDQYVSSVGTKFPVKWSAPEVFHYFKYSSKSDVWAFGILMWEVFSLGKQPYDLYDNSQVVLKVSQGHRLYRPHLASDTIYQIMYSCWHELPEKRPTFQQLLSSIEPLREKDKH
The method in brief: as §1

Setting [2] is: read-out: Residual activity (%) Spautin-1 5aa.
Setting [3] is: read-out: Residual activity (%) 5as.
Setting [4] is: read-out: Residual activity (%) 5at.
Setting [5] is: read-out: Residual activity (%) 5ay.

Chain of TGFBR2(h) (P37173 whole entry): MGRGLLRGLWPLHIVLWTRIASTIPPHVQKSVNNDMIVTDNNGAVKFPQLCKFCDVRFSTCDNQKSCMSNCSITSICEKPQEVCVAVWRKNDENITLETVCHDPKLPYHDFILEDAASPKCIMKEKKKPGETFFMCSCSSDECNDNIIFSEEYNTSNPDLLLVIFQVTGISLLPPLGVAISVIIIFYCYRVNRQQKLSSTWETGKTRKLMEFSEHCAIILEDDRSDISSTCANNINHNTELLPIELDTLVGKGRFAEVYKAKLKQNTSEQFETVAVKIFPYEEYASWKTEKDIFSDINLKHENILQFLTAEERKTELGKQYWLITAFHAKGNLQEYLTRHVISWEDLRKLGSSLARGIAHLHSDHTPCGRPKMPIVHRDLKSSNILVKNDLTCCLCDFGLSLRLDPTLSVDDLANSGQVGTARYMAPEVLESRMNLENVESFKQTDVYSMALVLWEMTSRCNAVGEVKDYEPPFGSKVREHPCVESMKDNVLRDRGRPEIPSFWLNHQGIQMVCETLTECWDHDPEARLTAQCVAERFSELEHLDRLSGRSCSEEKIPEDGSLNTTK
T5 sequence (P07947 whole entry): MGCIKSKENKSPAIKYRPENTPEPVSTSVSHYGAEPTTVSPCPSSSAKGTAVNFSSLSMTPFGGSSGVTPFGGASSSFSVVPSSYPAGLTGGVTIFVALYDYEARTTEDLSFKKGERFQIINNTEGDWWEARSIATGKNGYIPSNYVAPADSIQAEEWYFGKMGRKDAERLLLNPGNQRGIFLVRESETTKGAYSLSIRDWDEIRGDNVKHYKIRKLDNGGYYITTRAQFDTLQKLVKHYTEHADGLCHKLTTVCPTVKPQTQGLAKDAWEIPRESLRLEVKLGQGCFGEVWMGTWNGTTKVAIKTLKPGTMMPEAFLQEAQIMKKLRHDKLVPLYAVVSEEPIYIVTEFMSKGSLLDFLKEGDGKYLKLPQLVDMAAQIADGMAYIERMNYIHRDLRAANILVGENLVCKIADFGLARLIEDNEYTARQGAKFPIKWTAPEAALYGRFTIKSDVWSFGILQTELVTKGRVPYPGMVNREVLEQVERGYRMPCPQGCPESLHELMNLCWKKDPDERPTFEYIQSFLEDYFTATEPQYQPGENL
Chain of CSK(h) (P41240 whole entry): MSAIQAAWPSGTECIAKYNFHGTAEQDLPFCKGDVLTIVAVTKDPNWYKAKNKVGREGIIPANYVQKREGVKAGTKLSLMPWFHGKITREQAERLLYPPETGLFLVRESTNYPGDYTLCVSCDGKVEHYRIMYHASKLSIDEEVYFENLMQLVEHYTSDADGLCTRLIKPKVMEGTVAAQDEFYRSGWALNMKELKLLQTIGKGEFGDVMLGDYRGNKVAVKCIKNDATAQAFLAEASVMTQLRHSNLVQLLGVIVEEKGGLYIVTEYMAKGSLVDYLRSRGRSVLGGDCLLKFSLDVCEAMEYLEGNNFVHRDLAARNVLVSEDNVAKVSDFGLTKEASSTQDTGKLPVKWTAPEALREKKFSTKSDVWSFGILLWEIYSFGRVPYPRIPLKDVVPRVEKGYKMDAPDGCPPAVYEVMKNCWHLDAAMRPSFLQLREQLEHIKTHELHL
Chain of IRAK1(h) (P51617 whole entry): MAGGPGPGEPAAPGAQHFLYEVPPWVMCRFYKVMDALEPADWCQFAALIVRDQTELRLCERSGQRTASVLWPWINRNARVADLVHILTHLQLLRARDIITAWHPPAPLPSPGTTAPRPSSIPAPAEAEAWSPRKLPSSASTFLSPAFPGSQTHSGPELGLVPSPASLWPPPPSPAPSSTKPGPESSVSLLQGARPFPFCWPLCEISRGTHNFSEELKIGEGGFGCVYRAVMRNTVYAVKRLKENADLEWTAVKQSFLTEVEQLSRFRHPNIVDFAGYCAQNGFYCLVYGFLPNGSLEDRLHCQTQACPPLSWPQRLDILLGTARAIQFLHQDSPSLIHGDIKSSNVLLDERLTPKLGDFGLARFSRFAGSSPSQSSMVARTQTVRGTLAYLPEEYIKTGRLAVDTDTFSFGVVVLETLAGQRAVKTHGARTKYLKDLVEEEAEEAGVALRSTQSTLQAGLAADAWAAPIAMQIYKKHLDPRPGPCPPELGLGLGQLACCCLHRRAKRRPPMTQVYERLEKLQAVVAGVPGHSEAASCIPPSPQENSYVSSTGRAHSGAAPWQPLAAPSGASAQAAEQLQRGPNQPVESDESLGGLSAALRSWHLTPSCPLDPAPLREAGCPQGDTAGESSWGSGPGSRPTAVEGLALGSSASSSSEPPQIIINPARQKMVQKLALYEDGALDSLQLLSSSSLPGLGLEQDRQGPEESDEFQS

As to `Fc1ccc(CNc2ncnc3ccc(F)cc23)cc1` [5aa, 6-Fluoro-N-(4-fluorobenzyl)-4-Quinazolinamine], the remaining activity at 10 µM at RIPK2(h) (setting [2]) was 82%; at TGFBR2(h) (setting [2]) it was 97%; in [1] (setting [2]) it was 96%; on GRK1(h) (setting [2]) it was 101%; on HIPK2(h) (setting [2]), 109%; at CaMKIIα(h) (setting [2]), 94%. Besides, the remaining activity at 10 µM is 104% at PRP4(h) (setting [2]); 82% on CSK(h) (setting [2]); 92% on Yes(h) (setting [2]); 93% on Rsk2(h) (setting [2]); 114% at IRAK1(h) (setting [2]); 79% at Bmx(h) (setting [2]).

Turning to `Fc1ccc(CCNc2ncnc3ccc(F)cc23)cc1` [5as, 6-Fluoro-N-[2-(4-Fluorophenyl)Ethyl]-4-Quinazolinamine], the remaining activity at 10 µM on RIPK2(h) (setting [3]) is 86%; at TGFBR2(h) (setting [3]), 91%; in test [1] (setting [3]), 91%; on GRK1(h) (setting [3]) it was 79%; at HIPK2(h) (setting [3]), 96%; at CaMKIIα(h) (setting [3]), 88%. Further, the remaining activity at 10 µM at PRP4(h) (setting [3]) came out at 105%; on CSK(h) (setting [3]), 85%; at Yes(h) (setting [3]), 86%; at Rsk2(h) (setting [3]), 79%; at IRAK1(h) (setting [3]), 87%; on Bmx(h) (setting [3]), 78%.

Turning to `Fc1ccc2ncnc(NCCc3ccc(Cl)cc3)c2c1` [5at, N-[2-(4-Chlorophenyl)Ethyl]-6-Fluoro-4-Quinazolinamine], the remaining activity at 10 µM at RIPK2(h) (setting [4]) is 86%; at TGFBR2(h) (setting [4]), 93%; in test [1] (setting [4]), 94%; on GRK1(h) (setting [4]) it was 81%; on HIPK2(h) (setting [4]), 94%; on CaMKIIα(h) (setting [4]) it was 89%. In addition, the remaining activity at 10 µM at PRP4(h) (setting [4]) was determined as 99%; on CSK(h) (setting [4]) it was 79%; on Yes(h) (setting [4]) it was 84%; on Rsk2(h) (setting [4]), 73%; on IRAK1(h) (setting [4]), 106%; at Bmx(h) (setting [4]) it was 78%.

Take `COc1ccc2ncnc(Nc3cccc(F)c3)c2c1` [5ay, N-(3-Fluorophenyl)-6-Methoxy-4-Quinazolinamine]: the remaining activity at 10 µM on RIPK2(h) (setting [5]) amounted to 22%; at TGFBR2(h) (setting [5]), 96%; in test [1] (setting [5]), 93%; on GRK1(h) (setting [5]), 88%; at HIPK2(h) (setting [5]) it was 86%; on CaMKIIα(h) (setting [5]), 58%. Besides, the remaining activity at 10 µM was 100% at PRP4(h) (setting [5]); 91% at CSK(h) (setting [5]); 72% at Yes(h) (setting [5]); 70% at Rsk2(h) (setting [5]); 87% on IRAK1(h) (setting [5]); 77% on Bmx(h) (setting [5]).
